# According to a melting point compilation (Tetko et al.; mined from patent text by program, amines drawn as free bases though some values may be those of a salt):
row,melting point [°C],SMILES
1,245 to 249,CC(=O)Nc1ccccc1-c1ccc2c(c1)S(=O)(=O)NC(C1CCCCC1)N2 (configuration not stated)
2,236 to 237,O=c1cc(N2CCOCC2)cc(-c2ccc(Cl)cc2)o1
3,170 to 174,CC(=O)SCC(Cc1ccccc1)C(=O)Nc1cc(C(=O)O)ccc1N1CCCCC1 (configuration not stated)
4,115 to 117,Cc1ccc(N2CCN3C(=O)CCC3C2=O)cc1 (configuration not stated)
5,180 to 181,O=C(NCC(C(=O)O)C(F)(F)F)Nc1ccccc1 (configuration not stated)
6,60,COC(=O)CCNc1ccccc1CNC(=O)C1Cc2ccccc2N1S(=O)(=O)c1ccc(-c2cccc(C(F)(F)F)c2)cc1 (configuration not stated)
7,149,CCOC(=O)CC(NC(=O)c1cccc(NC(=O)c2cnc(NC(=N)N)s2)c1)c1ccccc1 (racemic)
8,262 to 264,COc1ccc2[nH]c3c([N+](=O)[O-])ccc(Cl)c3c(=O)c2c1
9,154 to 155,O=C(NC1CCN(CCC(O)C(=O)C(O)CCN2CCC(NC(=O)c3ccccc3)CC2)CC1)c1ccccc1 (configuration not stated)
10,104 to 106,CCOC(=O)CCCCCOc1ccc(Nc2ccncc2)cc1
11,116 to 119,O=C(O)c1cccc(Oc2ccc(C(F)(F)F)cc2Cl)c1
12,234 to 236,O=C1Cc2cc(F)c(N3C(=O)C4=C(CCCC4)C3=O)cc2N1
13,179 to 181,CC(O)c1ccc(C(C)Oc2cncc(C(=O)Nc3ccc(C#N)cc3)c2)cc1 (configuration not stated)
14,235,CC1(C)CCC(C)(C)c2cc(-c3cc(-c4ccc(C(=O)O)cc4)ccc3OCCCCO)ccc21
15,167 to 168,CCn1ncc2c1ncc1c(=O)n3nccc3n(CCC(C)C)c12
16,138 to 140,CN(O)C(=O)C=Cc1ccc2ccccc2c1
17,141 to 142,COC(=O)NC(CC(=O)c1ccc(Cl)cc1)C(=O)O (configuration not stated)
18,128 to 131,COc1ccc(N2CCN(c3c(C)c(C)c4c(c3C)C(c3ccsc3)C(C)(C)O4)CC2)cc1 (configuration not stated)

row,melting point [°C],SMILES
1,192 to 194,CCC1(CC)c2cc(-c3nc4ccccc4s3)ccc2-c2ccc(N(c3ccc(Oc4ccc(N)cc4)cc3)c3ccc(Oc4ccc(N)cc4)cc3)cc21
2,121 to 122,CC1CN(c2cccc(C(F)(F)F)c2)N=C1NC(=O)C(F)(F)F (configuration not stated)
3,156 to 158,CCCC(=O)Oc1ccc(C(=O)Nc2ccc3cc(CN4CCCC4)cnc3c2C)cc1
4,163 to 165,Cc1noc(C)c1C(=O)Nc1ccc(-n2nc(C(F)(F)F)cc2C2CC2)c(F)c1
5,102 to 103,FC(F)c1cccc(C#CCCn2nc3ccccc3n2)n1
6,208 to 210,c1cc2cc(Nc3ncnc4cnc(N5CCOCC5)nc34)ccc2cn1
7,75,COC(=O)c1ncncc1OC
8,152 to 154,CCC(CC)n1cc(Br)nc(N2CCc3cc(OC)cc(C)c32)c1=O
9,246 to 249,O=C(O)Cc1c(C(=O)c2ccc(-c3cccs3)cc2)[nH]c2cc(Cl)ccc12
10,160 to 161,C#CCn1cc(Cc2ccc(C(=O)OC)cc2OC)c2cc(NC(=O)CC3CCCC3)ccc21
11,149 to 150,CCOC(=O)COc1cc(C2COc3c(C)c(C)c(NC(=O)CC(C)(C)C)c(C)c32)ccc1C(C)C (configuration not stated)
12,133,COC(=O)C(C)(C)Cc1[nH]c2cc(OC)ccc2c1SC(C)(C)C
13,181 to 185,C=CCOc1ncc(F)c(C2(C(=O)NN)C=CC=C(C)C2)n1 (configuration not stated)
14,308,Sc1ncc(-c2ccc(Cl)cc2)[nH]1
15,249 to 252,C[C@@H]1Cc2c(N3CCN(C)CC3)c(F)cc3c(=O)c(C(=O)O)cn1c23
16,108 to 114,CN1C(=O)C2C3CCC(C3)C2(c2ccc3c(c2)CCCC3)C1=O (configuration not stated)
17,147 to 148,CN(C)C(=O)c1ccc2c(c1)CC(=O)N2

row,SMILES,melting point [°C]
1,COC(=O)C1N=C(c2ccccc2F)c2cc(Cl)ccc2-n2c1cnc2C (configuration not stated),203 to 205
2,Cc1nnc2n1-c1ccc(C#CCN3C(=O)CN(C)C(=O)c4ccccc43)cc1C(c1ccccc1F)=NC2,179 to 182
